Patent US20150203837A1, “FUSION PROTEIN FOR ACTIVATING RTK SIGNAL TRANSMISSION BY MEANS OF LIGHT, AND USE THEREOF” (KOREA ADVANCED INSTITUTE OF SCIENCE AND TECHNOLOGY, priority 2012, published 2015)

Target: T1, TrkB (Rattus norvegicus, UniProt Q63604)
T1 construct: PHR domain (1-498 a.a.) of Arabidopsis CRY2 (NM_100320); expressed in transfected cells; host or cells: HeLa; the other entry of the earlier key: CRY2 (Q96524, Cryptochrome-2)
Assay: Light-induced calcium signaling after treatment with TrkB-specific inhibitor (R-GECO imaging)
Format: cell-based
Details: 100 nM K252a; HeLa cells co-transfected with TrkB-PHR-YFP and R-GECO; 488 nm light
Excerpt: The present inventors observed whether sub-RTK signaling was activated by light irradiation after treating a RTK-specific inhibitor in order to confirm that only RTK-specific signaling pathways are activated by light irradiation affecting downstream pathways thereof.
The present inventors used TrkB-PHR-YFP construct prepared in the example 1-1 as an example to investigate the activation of TRK signal transduction. In addition, the present inventors used R-GECO construct (Addgene, plasmid 32444; CMV-R-GECO1) to investigate whether calcium signaling among downstream signaling pathways of RTK is activated by light irradiation. Particularly, HeLa cells were co-transfected with the TrkB-PHR-YFP construct prepared in the example 1-1 and R-GECO construct and cultured in DMEM media containing 10% FBS in the condition of 37° C. and 10% CO2. The cultivated cells were treated with 100 nM of K252a known as a TrkB-specific inhibitor and images taken with a confocal microscope before and after the irradiation with light having 488 nm of wavelength were obtained and analyzed (FIG. 6). As a result, it was observed that there is no difference in the experimental group treated with K252a. On the contrary, the calcium signaling was changed according to light irradiation in the control group.

T1 sequence (Q63604 with tags, fused parts or gaps): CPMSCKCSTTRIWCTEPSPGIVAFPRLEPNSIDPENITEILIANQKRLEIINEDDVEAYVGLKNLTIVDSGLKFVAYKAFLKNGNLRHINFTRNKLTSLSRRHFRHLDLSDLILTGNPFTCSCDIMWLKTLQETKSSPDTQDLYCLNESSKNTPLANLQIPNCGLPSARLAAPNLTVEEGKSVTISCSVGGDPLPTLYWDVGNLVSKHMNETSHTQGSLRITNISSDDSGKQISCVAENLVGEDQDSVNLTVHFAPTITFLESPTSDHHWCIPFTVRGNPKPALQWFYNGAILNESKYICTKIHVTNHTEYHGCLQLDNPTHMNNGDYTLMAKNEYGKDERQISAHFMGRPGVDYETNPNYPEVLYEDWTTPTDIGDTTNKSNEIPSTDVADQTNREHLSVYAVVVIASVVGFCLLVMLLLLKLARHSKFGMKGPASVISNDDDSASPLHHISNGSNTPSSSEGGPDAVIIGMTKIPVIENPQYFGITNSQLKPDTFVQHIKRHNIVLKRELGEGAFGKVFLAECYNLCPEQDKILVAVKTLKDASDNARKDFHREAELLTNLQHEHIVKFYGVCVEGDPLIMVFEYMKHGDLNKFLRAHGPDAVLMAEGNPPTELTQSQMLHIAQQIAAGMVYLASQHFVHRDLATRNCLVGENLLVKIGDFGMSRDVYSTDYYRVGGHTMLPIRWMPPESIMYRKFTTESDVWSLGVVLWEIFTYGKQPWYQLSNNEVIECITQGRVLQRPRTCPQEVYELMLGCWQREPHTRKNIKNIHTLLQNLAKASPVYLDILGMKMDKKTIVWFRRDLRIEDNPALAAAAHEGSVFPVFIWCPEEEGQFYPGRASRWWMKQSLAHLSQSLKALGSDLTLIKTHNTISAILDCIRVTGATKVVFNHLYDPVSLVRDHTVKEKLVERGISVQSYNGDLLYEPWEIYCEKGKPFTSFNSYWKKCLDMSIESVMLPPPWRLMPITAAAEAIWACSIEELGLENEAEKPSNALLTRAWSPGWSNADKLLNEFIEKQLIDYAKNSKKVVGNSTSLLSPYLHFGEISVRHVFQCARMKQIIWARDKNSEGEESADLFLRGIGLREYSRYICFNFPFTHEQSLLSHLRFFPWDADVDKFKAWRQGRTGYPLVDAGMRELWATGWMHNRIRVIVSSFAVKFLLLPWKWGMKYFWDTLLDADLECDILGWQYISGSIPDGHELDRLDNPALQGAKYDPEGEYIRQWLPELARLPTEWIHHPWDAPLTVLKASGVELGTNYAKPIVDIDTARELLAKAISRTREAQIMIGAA

COC(=O)[C@@]1(O)C[C@H]2O[C@]1(C)n1c3ccccc3c3c4c(c5c6ccccc6n2c5c31)C(=O)NC4 [K252a]
change of calcium signaling according to light irradiation: no difference
